In assay [1] the target is human JAK1 (a.a. 837-1142) (Homo sapiens, UniProt P23458). The experiment in a line: In vitro JAK kinase assay (HTRF, phosphorylation of a biotinylated peptide), JAK1. The following applies: measured at 1 mM ATP. It counts as biochemical. On the procedure:
(§1) Compounds herein were tested for inhibitory activity of JAK targets according to the following in vitro assay described in Park et al., Analytical Biochemistry 1999, 269, 94-104. The catalytic domains of human JAK1 (a.a. 837-1142), Jak2 (a.a. 828-1132) and Jak3 (a.a. 781-1124) with an N-terminal His tag were expressed using baculovirus in insect cells and purified. The catalytic activity of JAK1, JAK2 or JAK3 was assayed by measuring the phosphorylation of a biotinylated peptide. The phosphorylated peptide was detected by homogenous time resolved fluorescence (HTRF). […] Reactions were carried out at room temperature for 1 hr and then stopped with 20 μL 45 mM EDTA, 300 nM SA-APC, 6 nM Eu-Py20 in assay buffer (Perkin Elmer, Boston, Mass.). Binding to the Europium labeled antibody took place for 40 minutes and HTRF signal was measured on a Fusion plate reader (Perkin Elmer, Boston, Mass.).

The next assay has as its target Jak2 (a.a. 828-1132) (Homo sapiens (Human), UniProt O60674). Nature of the assay: In vitro JAK kinase assay (HTRF, phosphorylation of a biotinylated peptide), JAK2. The following applies: measured at 1 mM ATP. It counts as biochemical. As to the method: as §1

Results on 9 compounds are retold here after patent US9999619B2, “Piperidin-4-yl azetidine derivatives as JAK1 inhibitors” (Incyte Corporation, priority 2010, dated 2018).

A word on the pIC50: it is the IC50 on a negative log10 scale, so that one unit is a factor of ten. Read a low pIC50 as a high IC50.

pIC50: −log10 of the molar value. Some results are limits rather than exact numbers.

Chain of Jak2 (a.a. 828-1132) (O60674 828-1132): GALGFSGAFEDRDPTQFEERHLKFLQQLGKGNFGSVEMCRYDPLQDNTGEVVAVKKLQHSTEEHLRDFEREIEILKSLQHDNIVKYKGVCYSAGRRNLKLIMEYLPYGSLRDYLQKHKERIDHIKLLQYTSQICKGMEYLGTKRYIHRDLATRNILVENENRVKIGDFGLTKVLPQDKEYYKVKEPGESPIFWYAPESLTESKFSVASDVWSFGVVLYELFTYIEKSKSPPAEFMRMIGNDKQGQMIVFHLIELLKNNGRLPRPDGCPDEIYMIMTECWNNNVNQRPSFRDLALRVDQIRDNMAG

In the case of `[2H]C1(N2CC(CC#N)(n3cc(-c4ncnc5[nH]ccc45)cn3)C2)CCN(C(=O)c2ccnc(C(F)(F)F)c2F)CC1` [Example 363, {1-{1-[3-Fluoro-2-(trifluoromethyl)isonicotinoyl]-4-deuteropiperidin-4-yl}-3-[4-(7H-pyrrolo[2,3-d]pyrimidin-4-yl)-1H-pyrazol-1-yl]azetidin-3-yl}acetonitrile], the pIC50 in assay [1] is ≥ 8.30; at Jak2 (a.a. 828-1132) it was 7.00 to 7.30.

`N#CCC1(n2cc(-c3ncnc4[nH]ccc34)cn2)CN(C2CC3CCC(C2)N3C(=O)c2ccnc(C(F)(F)F)c2)C1` (stereo not drawn) [Example 144, (3-[4-(7H-pyrrolo[2,3-d]pyrimidin-4-yl)-1H-pyrazol-1-yl]-1-{8-[2-(trifluoromethyl)isonicotinoyl]-8-azabicyclo[3.2.1]oct-3-yl}azetidin-3-yl)acetonitrile]: the pIC50 in assay [1] is 7.70 to 8.30; at Jak2 (a.a. 828-1132), 7.30 to 8.00.

As to `[2H]C1([2H])CN(C(=O)c2ccnc(C(F)(F)F)c2F)CC([2H])([2H])C1([2H])N1CC(CC#N)(n2cc(-c3ncnc4[nH]ccc34)cn2)C1` [Example 364, {1-{1-[3-Fluoro-2-(trifluoromethyl)isonicotinoyl]3,3,4,5,5-pentadeuteropiperidin-4-yl}-3-[4-(7H-pyrrolo[2,3-d]pyrimidin-4-yl)-1H-pyrazol-1-yl]azetidin-3-yl}acetonitrile], the figures for the pIC50 (in assay [1]; against Jak2 (a.a. 828-1132)) were ≥ 8.30 and 7.00 to 7.30, respectively.

Consider `N#CCC1(n2cc(-c3ncnc4[nH]ccc34)cn2)CN(C2CCN(C(=O)c3cccc(Cl)c3)CC2)C1` [Example 19, {1-[1-(3-chlorobenzoyl)piperidin-4-yl]-3-[4-(7H-pyrrolo[2,3-d]pyrimidin-4-yl)-1H-pyrazol-1-yl]azetidin-3-yl}acetonitrile], for which the pIC50 in assay [1] is ≥ 8.30; on Jak2 (a.a. 828-1132) it was ≥ 8.00.

Turning to `N#CCC1(n2cc(-c3ncnc4[nH]ccc34)cn2)CN(C2CCN(C(=O)c3ccnc(C(F)(F)F)n3)CC2)C1` [Example 85, [3-[4-(7H-pyrrolo[2,3-d]pyrimidin-4-yl)-1H-pyrazol-1-yl]-1-(1-{[2-(trifluoromethyl)pyrimidin-4-yl]carbonyl}piperidin-4-yl)azetidin-3-yl]acetonitrile], the pIC50 in assay [1] was 7.70 to 8.30; against Jak2 (a.a. 828-1132), < 7.00.

For `N#CCC1(n2cc(-c3ncnc4[nH]ccc34)cn2)CN(C2CCN(C(=O)c3ccnc(C(F)(F)F)c3F)CC2)C1` [Example 1, {1-{1-[3-Fluoro-2-(trifluoromethyl)isonicotinoyl]piperidin-4-yl}-3-[4-(7H-pyrrolo[2,3-d]pyrimidin-4-yl)-1H-pyrazol-1-yl]azetidin-3-yl}acetonitrile], the pIC50 was ≥ 8.30 in assay [1] and < 7.00 against Jak2 (a.a. 828-1132).

For the compound `CC1CC(N2CC(CC#N)(n3cc(-c4ncnc5[nH]ccc45)cn3)C2)CCN1Cc1c(F)cccc1Cl` (single isomer, unassigned) [Example 245, {1-[1-(2-chloro-6-fluorobenzyl)-2-methylpiperidin-4-yl]-3-[4-(7H-pyrrolo[2,3-d]pyrimidin-4-yl)-1H-pyrazol-1-yl]azetidin-3-yl}acetonitrile], the pIC50 was 7.70 to 8.30 in assay [1] and 7.30 to 8.00 against Jak2 (a.a. 828-1132).

`N#CCC1(n2cc(-c3ncnc4[nH]ccc34)cn2)CN(C2CC3CCC(C2)N3C(=O)C2CCCCC2)C1` (stereo not drawn) [Example 147, {1-[8-(cyclohexylcarbonyl)-8-azabicyclo[3.2.1]oct-3-yl]-3-[4-(7H-pyrrolo[2,3-d]pyrimidin-4-yl)-1H-pyrazol-1-yl]azetidin-3-yl}acetonitrile]: the figures for the negative logarithm of the IC50 (pIC50) (in assay [1]; on Jak2 (a.a. 828-1132)) were ≥ 8.30 and ≥ 8.00, respectively.

`N#CCC1(n2cc(-c3ncnc4[nH]ccc34)cn2)CN(C2CC3CCC(C2)N3C(=O)C2CCCC2)C1` (stereo not drawn) [Example 145, {1-[8-(cyclopentylcarbonyl)-8-azabicyclo[3.2.1]oct-3-yl]-3-[4-(7H-pyrrolo[2,3-d]pyrimidin-4-yl)-1H-pyrazol-1-yl]azetidin-3-yl}acetonitrile]: the pIC50 in assay [1] was 7.70 to 8.30; on Jak2 (a.a. 828-1132), 7.30 to 8.00.
